The record followed here is patent US12441730B2, “PRMT5 inhibitors” (Merck Sharp & Dohme LLC, priority 2019, dated 2025).

Read-outs that look alike come from different tables or passages of the source.

In test [1] the test system is symmetric dimethylation of arginine (SDMA) of PRMT5 substrates in MCF-7 cells. Description: PRMT5 Cell Target Engagement (TE) Assay. The class given is cell-based. Conditions: Homo sapiens, MCF7, 72 h, 3 days treatment, SDMA high content imaging. In short, it runs like this:
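Readout is single-cell nuclear symmetric-dimethylarginine immunofluorescence (Alexa488), normalized to DMSO-treated cells. Compounds were applied to MCF-7 cells for 3 days at 37 °C, top concentration 10000 nM in 1:3 steps over ten points; curves fitted with 4-parameter robust fit.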

Test [2] deals with T1, Full-length (FL)-PRMT5-MEP50 enzyme complex (Homo sapiens, UniProt O14744).
T1 construct: Full-length (FL)-PRMT5-MEP50 enzyme complex (recombinant proteins from baculovirus-transfected Sf21 cells: FL-PRMT5; MW=73837 kDa and FL-MEP50; MW=38614); made in house; host or cells: baculovirus-transfected Sf21 cells
The test can be described thus: PRMT5-MEP50 Enzyme Methylation Assay (Version A). The class given is biochemical. An outline of the steps:
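Compound was pre-incubated with enzyme for 60 min, then reacted 150 min at 37° C. at final 1.0 nM PRMT5-MEP50, 15 μM SAM and 75 nM biotinylated H4R3(Me1) peptide, in 50 mM Bicine pH 8.0 with 1% DMSO. SAMDI mass-spectrometric readout of Me1→Me2 conversion. EC50 from 4- or 7-parameter regression.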

[3] abbreviates: second value of 7 parameter biphasic fit, read-out: Enzyme Methylation Assay Version A (EC50 2).
[4] abbreviates: single EC50 = 4 parameter single site sigmoidal fit, EC50 1 = first value of 7 parameter biphasic fit, read-out: Enzyme Methylation Assay Version A (EC50 or EC50 1).

T1 sequence (O14744 whole entry): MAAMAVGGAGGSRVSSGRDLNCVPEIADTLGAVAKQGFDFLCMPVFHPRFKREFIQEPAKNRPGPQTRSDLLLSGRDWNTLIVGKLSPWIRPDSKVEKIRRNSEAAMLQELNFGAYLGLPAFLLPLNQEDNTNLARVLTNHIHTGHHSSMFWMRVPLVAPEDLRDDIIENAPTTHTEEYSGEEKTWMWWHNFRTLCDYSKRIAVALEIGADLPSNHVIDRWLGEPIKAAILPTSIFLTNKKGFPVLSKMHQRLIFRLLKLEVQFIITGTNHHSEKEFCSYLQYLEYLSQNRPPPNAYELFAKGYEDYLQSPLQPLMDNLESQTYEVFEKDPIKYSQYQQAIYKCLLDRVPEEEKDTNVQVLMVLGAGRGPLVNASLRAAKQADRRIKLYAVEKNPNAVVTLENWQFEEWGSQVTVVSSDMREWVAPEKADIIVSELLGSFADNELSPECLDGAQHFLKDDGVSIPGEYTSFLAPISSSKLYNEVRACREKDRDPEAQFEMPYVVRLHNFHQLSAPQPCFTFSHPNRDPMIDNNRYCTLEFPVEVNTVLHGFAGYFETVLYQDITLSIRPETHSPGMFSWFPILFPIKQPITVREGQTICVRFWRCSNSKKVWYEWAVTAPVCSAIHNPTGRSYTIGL
T1 sequence (Q9BQA1 whole entry partner): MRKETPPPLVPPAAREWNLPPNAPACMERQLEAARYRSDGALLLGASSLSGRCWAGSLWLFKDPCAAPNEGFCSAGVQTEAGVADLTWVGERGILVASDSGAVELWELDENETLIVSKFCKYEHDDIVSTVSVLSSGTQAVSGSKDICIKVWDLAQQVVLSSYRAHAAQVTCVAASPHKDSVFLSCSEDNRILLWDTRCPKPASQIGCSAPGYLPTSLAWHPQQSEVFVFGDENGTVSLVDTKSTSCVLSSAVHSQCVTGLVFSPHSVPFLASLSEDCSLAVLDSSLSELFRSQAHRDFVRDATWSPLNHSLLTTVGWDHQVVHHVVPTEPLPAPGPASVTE

For `O=C(c1cn2cc(Br)nc(OC3COC3)c2n1)N1CC[C@]2(Cc3ccccc3CN2)[C@H](O)C1` [Example 12, (6-bromo-8-(oxetan-3-yloxy)imidazo[1,2-a]pyrazin-2-yl)((3R,3’R)-3′-hydroxy-1,4-dihydro-2H-spiro[isoquinoline-3,4′-piperidin]-1′-yl)methanone], the values for the concentration for a half-maximal effect (EC50) in test [1], in test [2] (setting [3]) and in test [2] (setting [4]) were 9.48 nM, 159 nM and 0.231 nM, respectively.
Take `O=C1CCCN1CCOc1nc(Br)cn2cc(C(=O)N3CC[C@]4(Cc5ccccc5CN4)[C@H](O)C3)nc12` [Example 13, 1-(2-((6-bromo-2-((3R,3’R)-3′-hydroxy-1,4-dihydro-2H-spiro[isoquinoline-3,4′-piperidine]-1′-carbonyl)imidazo[1,2-a]pyrazin-8-yl)oxy)ethyl)pyrrolidin-2-one]: the EC50 in test [1] was determined as 8.16 nM; in test [2] (setting [3]) it was 320 nM; in test [2] (setting [4]), 0.406 nM.
`O=C(c1cn2cc(Br)cc(N3CCCC3=O)c2n1)N1CC[C@]2(Cc3ccccc3CN2)[C@H](O)C1` [Example 14, 1-(6-bromo-2-((3R3’R)-3′-hydroxy-1,4-dihydro-2H-spiro[isoquinoline-3,4′-piperidine]-1′-carbonyl)imidazo[1,2-a]pyridin-8-yl)pyrrolidin-2-one]: the figures for the EC50 in test [1], in test [2] (setting [3]) and in test [2] (setting [4]) were 547 nM, 57500 nM and 100 nM, respectively.
The matching figures for `O=C(c1cn2cc(Br)ccc2n1)N1CCC2(Cc3ccccc3CN2)C(O)C1` (stereo not drawn) [Example 16, A diastereomer of (6-bromoimidazo[1,2-a]pyridin-2-yl)(3′-hydroxy-1,4-dihydro-1′H,2H-spiro[isoquinoline-3,4′-piperidin]-1′-yl)methanone]: 50.9 nM, 1590 nM and 2.02 nM.
Turning to `O=C(c1cc2ncc(Br)cn2n1)N1CC[C@]2(Cc3ccccc3CN2)[C@H](O)C1` [Example 17, (6-bromopyrazolo[1,5-a]pyrimidin-2-yl)((3R,3’R)-3′-hydroxy-1,4-dihydro-1′H,2H-spiro[isoquinoline-3,4′-piperidin]-1′-yl)methanone], the EC50 in test [1] stood at 14.1 nM; in test [2] (setting [3]), 794 nM; in test [2] (setting [4]), 1.51 nM.
The matching figures for `O=C(c1nc2cc(Cl)ccn2n1)N1CC[C@]2(Cc3ccccc3CN2)[C@H](O)C1` [Example 18]: 1010 nM, 57500 nM and 63.1 nM.
Taken in the same sequence, the figures for `COCCOc1nc(Br)cn2cc(C(=O)N3CC[C@]4(Cc5ccccc5CN4)[C@H](O)C3)nc12` [Example 19, (6-bromo-8-(2-methoxyethoxy)imidazo[1,2-a]pyrazin-2-yl)((3R,3’R)-3′-hydroxy-1,4-dihydro-2H-spiro[isoquinoline-3,4′-piperidin]-1′-yl)methanone] were 10.2 nM, 105 nM and 0.305 nM.
The matching figures for `CC(C)(O)COc1nc(Br)cn2cc(C(=O)N3CC[C@]4(Cc5ccccc5CN4)[C@H](O)C3)nc12` [Example 20, (6-bromo-8-(2-hydroxy-2-methylpropoxy)imidazo[1,2-a]pyrazin-2-yl)((3R,3’R)-3′-hydroxy-1,4-dihydro-2H-spiro[isoquinoline-3,4′-piperidin]-1′-yl)methanone]: 16.5 nM, 151 nM and 0.438 nM.
Turning to `N#CC1(COc2nc(Br)cn3cc(C(=O)N4CC[C@]5(Cc6ccccc6CN5)[C@H](O)C4)nc23)CC1` [Example 21, 1-(((6-bromo-2-((3R,3’R)-3′-hydroxy-1,4-dihydro-2H-spiro[isoquinoline-3,4′-piperidine]-l′-carbonyl)imidazo[1,2-a]pyrazin-8-yl)oxy)methyl)cyclopropane-1-carbonitrile], the 50% effective concentration (EC50) in test [1] turned out to be 2.13 nM; in test [2] (setting [4]) it was 0.191 nM.
Take `O=C(c1cn2cc(Br)cnc2n1)N1CC[C@]2(Cc3ccccc3CN2)[C@H](O)C1` [Example 24, (6-bromoimidazo[1,2-a]pyrimidin-2-yl)((3R,3’RR)-3′-hydroxy-1,4-dihydro-1′H,2H-spiro[isoquinoline-3,4′-piperidin]-1′-yl)methanone]: the 50% effective concentration (EC50) in test [1] came out at 4.09 nM; in test [2] (setting [3]) it was 146 nM; in test [2] (setting [4]) it was 0.461 nM.
The matching figures for `O=C(c1cnc2ncc(Br)cn12)N1CC[C@]2(Cc3ccccc3CN2)[C@H](O)C1` [Example 25, (6-bromoimidazo[1,2-a]pyrimidin-3-yl)((3R,3’R)-3′-hydroxy-1,4-dihydro-1′H,2H-spiro[isoquinoline-3,4′-piperidin]-1′-yl)methanone]: 30.2 nM, 2040 nM and 7.12 nM.
Taken in the same sequence, the figures for `CCN1CCNc2cc(C(=O)N3CC[C@]4(Cc5ccccc5CN4)[C@H](O)C3)ccc2C1=O` [Example 26, 4-ethyl-8-((3R,3’R)-3′-hydroxy-1,4-dihydro-1′H,2H-spiro[isoquinoline-3,4′-piperidine]-1′-carbonyl)-1,2,3,4-tetrahydro-5H-1,4-benzodiazepin-5-one] were 12.3 nM, 684 nM and 1.44 nM.
Regarding `CC(C)N1CCNc2cc(C(=O)N3CC[C@]4(Cc5ccccc5CN4)[C@H](O)C3)ccc2C1=O` [Example 27, 8-((3R,3’R)-3′-hydroxy-1,4-dihydro-1′H,2H-spiro[isoquinoline-3,4′-piperidine]-1′-carbonyl)-4-(propan-2-yl)-1,2,3,4-tetrahydro-5H-1,4-benzodiazepin-5-one], the EC50 in test [1] stood at 36.8 nM; in test [2] (setting [3]), 3350 nM; in test [2] (setting [4]), 3.65 nM.
As to `COCc1cc(Br)cn2cc(C(=O)N3CC[C@]4(Cc5ccccc5CN4)[C@H](O)C3)nc12` [Example 28, (6-bromo-8-(methoxymethyl)imidazo[1,2-a]pyridin-2-yl)((3R,3’R)-3′-hydroxy-1,4-dihydro-2H-spiro[isoquinoline-3,4′-piperidin]-1′-yl)methanone], the values for the EC50 in test [1] and in test [2] (setting [4]) were 2.75 nM and 0.816 nM, respectively.
In the case of `O=C(c1cn2cc(C(F)(F)F)cc(CO)c2n1)N1CC[C@]2(Cc3ccccc3CN2)[C@H](O)C1` [Example 29, ((3R,3’R)-3′-hydroxy-1,4-dihydro-1′H,2H-spiro[isoquinoline-3,4′-piperidin]-1′-yl)[8-(hydroxymethyl)-6-(trifluoromethyl)imidazo[1,2-a]pyridin-2-yl]methanone], the values for the EC50 in test [1], in test [2] (setting [3]) and in test [2] (setting [4]) were 18.4 nM, 653 nM and 0.428 nM, respectively.
With `N#CCCc1cc(C(F)(F)F)cn2cc(C(=O)N3CC[C@]4(Cc5ccccc5CN4)[C@H](O)C3)nc12` [Example 34, 3-(2-((3R,3’R)-3′-hydroxy-1,4-dihydro-2H-spiro[isoquinoline-3,4′-piperidine]-1′-carbonyl)-6-(trifluoromethyl)imidazo[1,2-a]pyridin-8-yl)propanenitrile], the EC50 in test [1] is 4 nM; in test [2] (setting [3]), 229 nM; in test [2] (setting [4]), 0.909 nM.
Taken in the same sequence, the figures for `Cc1cc(C(F)(F)F)cn2cc(C(=O)N3CC[C@]4(Cc5ccccc5CN4)[C@H](O)C3)nc12` [Example 35, ((3R,3’R)-3′-hydroxy-1,4-dihydro-2H-spiro[isoquinoline-3,4′-piperidin]-1′-yl)(8-methyl-6-(trifluoromethyl)imidazo[1,2-a]pyridin-2-yl)methanone] were 5.66 nM, 248 nM and 0.766 nM.
As for `N#Cc1ccc2nc(C(=O)N3CC[C@]4(Cc5ccccc5CN4)[C@H](O)C3)cn2c1` [Example 36, 2-((3R,3’R)-3′-hydroxy-1,4-dihydro-2H-spiro[isoquinoline-3,4′-piperidine]-1′-carbonyl)imidazo[1,2-a]pyridine-6-carbonitrile], the results for the 50% effective concentration (EC50) in test [1], in test [2] (setting [3]) and in test [2] (setting [4]) were 13.2 nM, 2820 nM and 6.26 nM, respectively.
`O=C(c1cn2cc(Cl)ccc2n1)N1CC[C@]2(Cc3ccccc3CN2)[C@H](O)C1` [Example 37, (6-chloroimidazo[1,2-a]pyridin-2-yl)((3R,3’R)-3′-hydroxy-1,4-dihydro-2H-spiro[isoquinoline-3,4′-piperidin]-1′-yl)methanone]: the concentration giving a half-maximal response (EC50) in test [1] came out at 1.61 nM; in test [2] (setting [3]), 251 nM; in test [2] (setting [4]), 0.757 nM.
Taken in the same sequence, the figures for `O=C(c1cn2cc(F)ccc2n1)N1CC[C@]2(Cc3ccccc3CN2)[C@H](O)C1` [Example 38, (6-fluoroimidazo[1,2-a]pyridin-2-yl)((3R,3’R)-3′-hydroxy-1,4-dihydro-2H-spiro[isoquinoline-3,4′-piperidin]-1′-yl)methanone] were 16.2 nM, 2460 nM and 3.84 nM.
Taken in the same sequence, the figures for `O=C(c1cn2cc(O)ccc2n1)N1CC[C@]2(Cc3ccccc3CN2)[C@H](O)C1` [Example 39, ((3R,3’R)-3′-hydroxy-1,4-dihydro-2H-spiro[isoquinoline-3,4′-piperidin]-1′-yl)(6-hydroxyimidazo[1,2-a]pyridin-2-yl)methanone] were 571 nM, 29200 nM and 95.5 nM.
The matching figures for `Cc1ccc2nc(C(=O)N3CC[C@]4(Cc5ccccc5CN4)[C@H](O)C3)cn2c1` [Example 40, ((3R,3’R)-3′-hydroxy-1,4-dihydro-2H-spiro[isoquinoline-3,4′-piperidin]-1′-yl)(6-methylimidazo[2,2-a]pyridin-2-yl)methanone]: 8.7 nM, 468 nM and 0.814 nM.

For orientation: EC50 means the concentration that produces a half-maximal response.
